The source of these data is US7358235B2, “Analogs of nitrobenzylthioinosine” (Gruenenthal GmbH, priority 2002, dated 2008).

“Also recorded” adds a separate entry of the source. Like-named read-outs stand apart in the source and are kept apart here. Marks after values point to notes of the source that are not given here.

Series [1] addresses T1, nucleoside transport protein (Homo sapiens, UniProt Q99808).
T1 construct: tissue Blood Bank, Leiden University Medical Center; host or cells: human erythrocyte membranes (ghosts) from whole human blood
T1 sequence (Q99808 1-456): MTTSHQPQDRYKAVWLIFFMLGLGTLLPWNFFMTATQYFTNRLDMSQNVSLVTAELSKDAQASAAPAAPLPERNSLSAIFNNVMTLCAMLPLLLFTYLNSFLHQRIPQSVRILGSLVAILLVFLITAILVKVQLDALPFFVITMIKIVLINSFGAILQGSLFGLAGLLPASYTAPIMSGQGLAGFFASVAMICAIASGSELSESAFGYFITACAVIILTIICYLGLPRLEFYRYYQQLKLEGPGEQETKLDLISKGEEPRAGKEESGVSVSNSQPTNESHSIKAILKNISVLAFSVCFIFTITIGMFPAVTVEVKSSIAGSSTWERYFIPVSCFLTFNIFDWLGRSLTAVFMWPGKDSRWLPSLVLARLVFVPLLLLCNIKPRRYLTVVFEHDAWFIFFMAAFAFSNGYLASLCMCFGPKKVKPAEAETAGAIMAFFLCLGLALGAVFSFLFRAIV
Briefly: [3H]NBTI radioligand binding assay on human erythrocyte membranes. The following applies: for affinity / activity in words: comparison within the series, [3H]NBTI binding. How it is done: All final products were tested in a radioligand binding assay.
Erythrocytes and membrane preparation. Whole human blood (Blood Bank, Leiden University Medical Center) was stirred in lysis buffer (½ v/v, 10 mM MgCl2 in 10 mM Tris HCl, pH 8.0 at 25° C.) for 1 h. After homogenization it was centrifuged for 50 min at 19,000 rpm. The supernatant was removed and the pellet was dissolved in ice-cold water and centrifuged again for 50 min. This procedure was repeated two more times. After removal of the last supernatant 25 mL of buffer (50 mM Tris HCl, pH 7.4 at 25° C.) was added to the final pink pellet. This suspension was homogenized and the ghosts were collected. Aliquots were stored at −80° C. until further use.
Saturation and displacement equilibrium NBTI binding to membranes prepared from human erythrocytes (ghosts) was determined at 25° C. based on a method previously described.

The mark [2] stands for this setting: inhibition of equilibrium binding of [3H]NBTI, Table 1, read-out: Ki(nM), affinity for the nucleoside transport protein on human erythrocyte membranes.
The mark [3] stands for this setting: human erythrocyte membranes, [3H]NBTI 1.5 nM, 30 minutes at 25° C., Tris.HCl pH 7.4, read-out: Binding (Nucleoside Transporter (Ki)).

As usually defined, the Ki is the dissociation constant of the complex between target and ligand, obtained from inhibition or displacement. Turning to `OC[C@H]1O[C@@H](n2cnc3c(SCc4cc(Cl)cc5nonc45)ncnc32)[C@H](O)[C@@H]1O` [Compound 16], the Ki in series [1] (setting [2]) turned out to be 25 nM.

As to `OCC1OC(n2cnc3c(SCc4ccc5nsc(Br)c5c4)ncnc32)C(O)C1O` (stereo not drawn) [Example 2, 2-[6-(3-Bromo-benzo[c]isothiazol-5-ylmethylsulfanyl)-purin-9-yl]-5-hydroxymethyl-tetrahydro-furan-3,4-diol], the Ki in series [1] (setting [2]) was found to be 42 nM.

For `OCC1OC(n2cnc3c(SCc4ccc5nonc5c4)ncnc32)C(O)C1O` (stereo not drawn) [Example 3, 2-[6-(Benzo[1,2,5]oxadiazol-5-ylmethylsulfanyl)-purin-9-yl]-5-hydroxymethyl-tetrahydro-furan-3,4-diol], the Ki in series [1] (setting [2]) is 1.5 nM.

On to `OCC1OC(n2cnc3c(SCc4cccc5nonc45)ncnc32)C(O)C1O` (stereo not drawn) [Example 4], for which the Ki in series [1] (setting [2]) is 9.7 nM.

With `OCC1OC(n2cnc3c(SCc4cccc5conc45)ncnc32)C(O)C1O` (stereo not drawn) [Example 7, 2-[6-(Benzo[c]isoxazol-7-ylmethylsulfanyl)-purin-9-yl]-5-hydroxy methyl-tetrahydro-furan-3,4-diol], the Ki in series [1] (setting [2]) turned out to be 666 nM.

As to `OCC1OC(n2cnc3c(SCc4ccc5nsc(Br)c5c4)ncnc32)C(O)C1O` (stereo not drawn) [Example 10, 2-[6-(3-Bromo-benzo[c]isothiazol-5-ylmethylsulfanyl)-purin-9-yl]-5-hydroxymethyl-tetra hydro-furan-3,4-diol], the inhibition constant (Ki) in series [1] (setting [3]) was 42 nM.

As for `OCC1OC(n2cnc3c(SCc4ccc5nc[nH]c5c4)ncnc32)C(O)C1O` (stereo not drawn) [Example 11, 2-[6-(3H-Benzoimidazol-5-ylmethylsulfanyl)-purin-9-yl]-5-hydroxymethyl-tetra hydro-furan-3,4-diol], the Ki in series [1] (setting [3]) and in series [1] (setting [2]) was 191 nM in each case.

Consider `OCC1OC(n2cnc3c(SCc4cccc5nc[nH]c45)ncnc32)C(O)C1O` (stereo not drawn) [Example 12, 2-[6-(3H-Benzoimidazol-4-ylmethylsulfanyl)-purin-9-yl]-5-hydroxymethyl-tetrahydro-furan-3,4-diol], for which the “Percentage of displacement at concentration of 10 μM” value in series [1] (10 μM, [3H]NBTI, human erythrocyte membranes) was found to be 42%*. Moreover, in series [1] (10 μM, human erythrocyte membranes, [3H]NBTI), the “Binding (Nucleoside Transporter), percentage at 10 μM” value is 42%.

Turning to `O=[N+]([O-])c1ccc(CSc2ncnc3c2ncn3C2CCCO2)cc1` (stereo not drawn) [Example 14, 6-(4-Nitro-benzylsulfanyl)-9-(tetrahydro-furan-2-yl)-9H-purine], the Ki in series [1] (setting [3]) and in series [1] (setting [2]) was 937 nM in each case.

For `O=[N+]([O-])c1ccc(CSc2ncnc3c2ncn3C2CCCCO2)cc1` (stereo not drawn) [Example 15, 6-(4-Nitro-benzylsulfanyl)-9-(tetrahydro-pyran-2-yl)-9H-purine], the Ki in series [1] (setting [3]) and in series [1] (setting [2]) was 1200 nM throughout.

As to `O=[N+]([O-])c1ccc(CSc2ncnc3c2ncn3CCCCOC2CCCCO2)cc1` (stereo not drawn) [Example 16, 6-(4-Nitro-benzylsulfanyl)-9-[4-(tetrahydro-pyran-2-yloxy)-butyl]-9H-purine], the “affinity / activity in words” value in series [1] was “did not improve the binding affinity”. Also, the Ki in series [1] (setting [3]) and in series [1] (setting [2]) was 488 nM each time.

Regarding `O=[N+]([O-])c1ccc(CSc2ncnc3c2ncn3CCCCO)cc1` [Example 17, 4-[6-(4-Nitro-benzylsulfanyl)-purin-9-yl]-butan-1-ol], the Ki in series [1] (setting [3]) and in series [1] (setting [2]) was 1140 nM each time.

For `O=[N+]([O-])c1ccc(CSc2ncnc3c2ncn3C2CCCC2)cc1` [Example 18, 9-Cyclopentyl-6-(4-nitro-benzylsulfanyl)-9H-purine], the Ki in series [1] (setting [3]) and in series [1] (setting [2]) was 736 nM each time.

In the case of `CCCCn1cnc2c(SCc3ccc([N+](=O)[O-])cc3)ncnc21` [Example 19, 9-Butyl-6-(4-nitro-benzylsulfanyl)-9H-purine], the inhibition constant Ki in series [1] (setting [3]) and in series [1] (setting [2]) was 238 nM throughout.

On to `CCCCn1cnc2c(SCc3cccc4nonc34)ncnc21` [Example 20, 6-(Benzo[1,2,5]oxadiazol-4-ylmethylsulfanyl)-9-butyl-9H-purine], for which the Ki in series [1] (setting [3]) and in series [1] (setting [2]) was 5600 nM throughout.

As to `CCCCn1cnc2c(SCc3ccc4nscc4c3)ncnc21` [Example 21, 6-(Benzo[c]isothiazol-5-ylmethylsulfanyl)-9-butyl-9H-purine], the Ki in series [1] (setting [3]) and in series [1] (setting [2]) was 3100 nM in each case.

With `CCCCn1cnc2c(SCc3ccc4nsc(Br)c4c3)ncnc21` [Example 22, 6-(3-Bromo-benzo[c]isothiazol-5-ylmethylsulfanyl)-9-butyl-9H-purine], the Ki in series [1] (setting [3]) and in series [1] (setting [2]) was 682 nM each time.

In the case of `OCC1OC(n2cnc3c(SCc4ccccc4)cc(Cl)nc32)C(O)C1O` (stereo not drawn) [Example 23, 2-(7-Benzylsulfanyl-5-chloro-imidazo[4,5-b]pyridin-3-yl)-5-hydroxymethyl-tetrahydro-furan-3,4-diol], the “affinity / activity in words” value in series [1] is recorded as “decrease in affinity”. The Ki in series [1] (setting [3]) and in series [1] (setting [2]) was 670 nM throughout.

Take `O=[N+]([O-])c1ccc(CSc2cc(Cl)nc3c2ncn3C2OC(CO)C(O)C2O)cc1` (stereo not drawn) [Example 24, 2-[5-Chloro-7-(4-nitro-benzylsulfanyl)-imidazo[4,5-b]pyridin-3-yl]-5-hydroxymethyl-tetrahydro-furan-3,4-diol]: the “affinity / activity in words” value in series [1] was “decrease in affinity”. In addition, the Ki in series [1] (setting [3]) and in series [1] (setting [2]) was 47 nM in each case. Moreover, the “increase of affinity relative to 60” value in series [1] (introduction of a nitro group) is reported as “approx. tenfold”.

In the case of `O=[N+]([O-])c1ccc(CSc2ncnc3c2ncn3CCCO)cc1` [Example 25, 3-[6-(4-Nitro-benzylsulfanyl)-purin-9-yl]-propan-1-ol], the Ki in series [1] (setting [3]) was determined as 130 nM.

As a reminder, the melting point is the temperature of the solid-liquid transition. The compound `O=[N+]([O-])c1ccc(CSc2ncnc3c2ncn3Cc2ccccc2)cc1` [Example 26, 9-Benzyl-6-(4-nitro-benzylsulfanyl)-9H-purine] registered a melting point of 139 °C. Further, in series [1] (setting [3]), the Ki is 135 nM.

With `OCC1OC(n2cnc3c(SCCc4ccccc4)ncnc32)C(O)C1O` (stereo not drawn) [Example 27, 2-Hydroxymethyl-5-(6-phenethylsulfanyl-purin-9-yl)-tetrahydro-furan-3,4-diol], in series [1] (setting [3]), the Ki stood at 12 nM.

Take `OCC1OC(n2cnc3c(SCc4ccc5nsc(Br)c5c4)ncnc32)C(O)C1O` (stereo not drawn) [Example 31]: the affinity gain in series [1] (bromination of 28 to yield 31) turned out to be 2.6 fold. Moreover, the Ki in series [1] (human erythrocyte membranes, [3H]NBTI, read-out: Ki) came out at 42 nM.

With `OCC1OC(n2cnc3c(SCc4ccc5nc[nH]c5c4)ncnc32)C(O)C1O` (stereo not drawn) [Example 37], in series [1], the “affinity / activity in words” value is reported as “negative effect on affinity”.

`OCC1OC(n2cnc3c(SCc4cccc5nc[nH]c45)ncnc32)C(O)C1O` (stereo not drawn) [Example 38]: the “affinity / activity in words” value in series [1] is given as “negative effect on affinity; also recorded: reduced affinity when compared to their counterparts”.

As for `O=[N+]([O-])c1ccc(CSc2ncnc3c2ncn3C2CCCO2)cc1` (stereo not drawn) [Example 43], the “affinity / activity in words” value in series [1] is listed as “decrease in activity compared to compound 53”.

With `O=[N+]([O-])c1ccc(CSc2ncnc3c2ncn3C2CCCCO2)cc1` (stereo not drawn) [Example 44], in series [1], the “affinity / activity in words” value is recorded as “decrease in activity compared to compound 53”.

For `O=[N+]([O-])c1ccc(CSc2ncnc3c2ncn3CCCCOC2CCCCO2)cc1` (stereo not drawn) [Example 46], the “affinity / activity in words” value in series [1] is “higher affinity”.

With `O=[N+]([O-])c1ccc(CSc2ncnc3c2ncn3C2CCCC2)cc1` [Example 48], the “affinity / activity in words” value in series [1] is reported as “decrease in activity compared to a simple n-butyl substituent”.
